Measured values taken from ChEMBL document CHEMBL1201862, “PubChem BioAssay data set” (2004).
Calls of active or inactive are those of the source.

Assays:
[1] = Counterscreen for AddAB inhibitors: absorbance-based bacterial cell-based high throughput dose response assay for inhibitors of bacterial viability. [Related pubchem assays (depositor defined):AID435030, AID449728, AID449731, AID488942, AID488955, AID488956]; assay type: functional
[2] = Luminescence Cell-Based Dose Retest to Confirm Inhibitors of Cancer Stem Cells. [Related pubchem assays (depositor defined):AID2717, AID2721]; assay type: functional; conditions: Homo sapiens
[3] = molecular target: Exodeoxyribonuclease V (Escherichia coli (strain K12), UniProt P04993+P07648+P08394); assay: RecBCD inhibition via phage-restricted bacterial growth – absorbance, V66 E. coli, mutant T4 phage, counter-screen for AddAB inhibitor project, dose response (AID 492957); assay type: functional, cell-based, Escherichia coli str. K-12 substr. MG1655
Exodeoxyribonuclease V, sequence (P04993 whole entry): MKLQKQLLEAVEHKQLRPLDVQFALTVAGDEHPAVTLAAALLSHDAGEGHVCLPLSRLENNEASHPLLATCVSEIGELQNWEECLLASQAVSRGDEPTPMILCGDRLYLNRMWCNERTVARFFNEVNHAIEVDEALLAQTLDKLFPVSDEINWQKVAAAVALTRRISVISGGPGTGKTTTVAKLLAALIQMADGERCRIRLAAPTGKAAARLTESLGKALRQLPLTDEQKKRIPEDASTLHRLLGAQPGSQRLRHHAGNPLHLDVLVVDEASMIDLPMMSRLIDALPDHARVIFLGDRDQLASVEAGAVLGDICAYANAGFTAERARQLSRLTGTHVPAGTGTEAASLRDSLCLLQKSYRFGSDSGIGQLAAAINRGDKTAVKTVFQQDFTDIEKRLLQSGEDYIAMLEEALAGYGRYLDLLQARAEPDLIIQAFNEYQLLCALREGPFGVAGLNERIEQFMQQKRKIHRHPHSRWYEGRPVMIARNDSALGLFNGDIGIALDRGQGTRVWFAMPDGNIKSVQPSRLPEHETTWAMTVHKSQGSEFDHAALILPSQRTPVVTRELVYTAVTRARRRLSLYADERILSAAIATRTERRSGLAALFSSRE
Exodeoxyribonuclease V, sequence (P07648 whole entry): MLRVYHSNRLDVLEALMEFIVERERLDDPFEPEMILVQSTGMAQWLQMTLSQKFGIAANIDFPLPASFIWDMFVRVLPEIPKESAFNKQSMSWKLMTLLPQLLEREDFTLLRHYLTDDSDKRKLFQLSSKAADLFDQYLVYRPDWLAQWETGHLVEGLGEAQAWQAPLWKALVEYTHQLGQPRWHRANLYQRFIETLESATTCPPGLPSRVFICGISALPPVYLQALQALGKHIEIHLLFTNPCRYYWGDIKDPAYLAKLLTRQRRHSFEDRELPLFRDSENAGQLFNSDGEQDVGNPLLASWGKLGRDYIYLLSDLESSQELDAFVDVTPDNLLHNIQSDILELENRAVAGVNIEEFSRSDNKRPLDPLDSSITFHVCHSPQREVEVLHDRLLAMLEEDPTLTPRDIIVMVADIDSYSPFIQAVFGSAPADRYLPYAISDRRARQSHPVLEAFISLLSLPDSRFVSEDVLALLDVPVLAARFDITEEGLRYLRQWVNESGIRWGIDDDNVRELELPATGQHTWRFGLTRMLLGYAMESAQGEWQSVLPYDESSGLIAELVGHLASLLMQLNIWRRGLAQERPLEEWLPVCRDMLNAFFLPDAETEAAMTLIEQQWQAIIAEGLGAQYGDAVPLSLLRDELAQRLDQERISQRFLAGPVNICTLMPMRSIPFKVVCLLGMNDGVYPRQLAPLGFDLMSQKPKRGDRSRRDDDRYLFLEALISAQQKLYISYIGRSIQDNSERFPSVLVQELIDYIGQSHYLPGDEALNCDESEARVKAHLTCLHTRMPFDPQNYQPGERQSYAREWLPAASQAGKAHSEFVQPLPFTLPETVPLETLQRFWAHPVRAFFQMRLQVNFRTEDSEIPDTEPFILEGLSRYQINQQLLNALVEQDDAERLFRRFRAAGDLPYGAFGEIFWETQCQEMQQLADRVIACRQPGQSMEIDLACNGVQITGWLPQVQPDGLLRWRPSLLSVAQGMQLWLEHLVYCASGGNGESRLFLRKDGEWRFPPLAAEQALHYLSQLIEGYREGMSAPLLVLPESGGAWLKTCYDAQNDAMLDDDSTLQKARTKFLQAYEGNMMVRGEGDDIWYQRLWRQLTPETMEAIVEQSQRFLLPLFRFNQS
Exodeoxyribonuclease V, sequence (P08394 whole entry): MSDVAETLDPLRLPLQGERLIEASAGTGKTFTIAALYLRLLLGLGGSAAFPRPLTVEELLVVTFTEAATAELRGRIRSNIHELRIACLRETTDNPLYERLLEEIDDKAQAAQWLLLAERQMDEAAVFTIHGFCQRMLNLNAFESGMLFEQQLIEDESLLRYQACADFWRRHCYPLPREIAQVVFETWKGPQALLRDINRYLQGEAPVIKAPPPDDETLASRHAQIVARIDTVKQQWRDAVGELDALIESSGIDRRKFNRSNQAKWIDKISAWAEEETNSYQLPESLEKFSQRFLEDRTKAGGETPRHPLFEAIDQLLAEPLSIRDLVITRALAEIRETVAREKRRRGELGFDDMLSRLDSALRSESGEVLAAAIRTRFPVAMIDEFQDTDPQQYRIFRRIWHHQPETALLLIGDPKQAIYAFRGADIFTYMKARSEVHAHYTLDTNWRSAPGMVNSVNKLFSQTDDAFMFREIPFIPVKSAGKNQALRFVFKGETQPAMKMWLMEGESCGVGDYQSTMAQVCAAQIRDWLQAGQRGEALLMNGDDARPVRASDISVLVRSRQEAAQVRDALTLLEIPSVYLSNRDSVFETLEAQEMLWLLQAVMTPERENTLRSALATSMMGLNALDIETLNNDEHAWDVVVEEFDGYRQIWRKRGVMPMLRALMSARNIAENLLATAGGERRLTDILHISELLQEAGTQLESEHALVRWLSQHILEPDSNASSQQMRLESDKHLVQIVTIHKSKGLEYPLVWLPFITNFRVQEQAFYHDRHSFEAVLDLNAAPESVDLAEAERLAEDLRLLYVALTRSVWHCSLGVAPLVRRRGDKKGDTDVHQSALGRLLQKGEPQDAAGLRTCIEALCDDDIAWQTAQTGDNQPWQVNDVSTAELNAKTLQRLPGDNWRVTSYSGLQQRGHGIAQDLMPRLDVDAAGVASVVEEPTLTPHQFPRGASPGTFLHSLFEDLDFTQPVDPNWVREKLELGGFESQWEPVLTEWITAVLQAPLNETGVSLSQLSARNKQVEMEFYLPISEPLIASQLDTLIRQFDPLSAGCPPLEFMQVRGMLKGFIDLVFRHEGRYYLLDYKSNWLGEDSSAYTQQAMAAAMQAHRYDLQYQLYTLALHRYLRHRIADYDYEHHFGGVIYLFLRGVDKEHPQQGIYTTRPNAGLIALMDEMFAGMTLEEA

[4] = reduction of Shn3 3'UTR-driven luciferase in osteoblasts – cell-based, Clone20 osteoblasts, firefly luciferase, cherry-picked, dose response (AID 624132); assay type: functional;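 further: firefly luciferase luminescence from reporter carrying the Shn3 3'UTR in osteoblasts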
[5] = viability of HCT116 lacking mutant beta-catenin – cell-based, human colon tumor, dose response (AID 1045); assay type: functional;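 further: HCT116 colon tumor cells with beta catenin knocked out; cells exposed to compound for 60 hours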
[6] = viability of PTEN-deleted HCT116 cells – cell-based, HCT116 PTEN knockout, dose response (AID 1047); assay type: functional;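 further: HCT116 colon tumor cells with PTEN knocked out; cells exposed to compound for 60 hours before readout; potency for loss of cell viability measured by luminescence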
[7] = microbe, parasite or virus in culture; assay type: functional; conditions: Mycobacterium tuberculosis
[8] = non-specific 3'UTR reporter inhibition in Clone20-Shn3RL – cell-based, Renilla luciferase, cherry-picked, counter-screen for Shn3 inhibitor project, dose response (AID 624133); assay type: functional
[9] = molecular target: Beta-galactosidase (Escherichia coli, UniProt Q8VNN2); assay: detection-enzyme interference by beta-gal modulators – biochemical, E. coli enzyme, set 3, artefact control for CCR6 antagonist project, dose response (AID 504712); assay type: functional
Beta-galactosidase, sequence (Q8VNN2 whole entry): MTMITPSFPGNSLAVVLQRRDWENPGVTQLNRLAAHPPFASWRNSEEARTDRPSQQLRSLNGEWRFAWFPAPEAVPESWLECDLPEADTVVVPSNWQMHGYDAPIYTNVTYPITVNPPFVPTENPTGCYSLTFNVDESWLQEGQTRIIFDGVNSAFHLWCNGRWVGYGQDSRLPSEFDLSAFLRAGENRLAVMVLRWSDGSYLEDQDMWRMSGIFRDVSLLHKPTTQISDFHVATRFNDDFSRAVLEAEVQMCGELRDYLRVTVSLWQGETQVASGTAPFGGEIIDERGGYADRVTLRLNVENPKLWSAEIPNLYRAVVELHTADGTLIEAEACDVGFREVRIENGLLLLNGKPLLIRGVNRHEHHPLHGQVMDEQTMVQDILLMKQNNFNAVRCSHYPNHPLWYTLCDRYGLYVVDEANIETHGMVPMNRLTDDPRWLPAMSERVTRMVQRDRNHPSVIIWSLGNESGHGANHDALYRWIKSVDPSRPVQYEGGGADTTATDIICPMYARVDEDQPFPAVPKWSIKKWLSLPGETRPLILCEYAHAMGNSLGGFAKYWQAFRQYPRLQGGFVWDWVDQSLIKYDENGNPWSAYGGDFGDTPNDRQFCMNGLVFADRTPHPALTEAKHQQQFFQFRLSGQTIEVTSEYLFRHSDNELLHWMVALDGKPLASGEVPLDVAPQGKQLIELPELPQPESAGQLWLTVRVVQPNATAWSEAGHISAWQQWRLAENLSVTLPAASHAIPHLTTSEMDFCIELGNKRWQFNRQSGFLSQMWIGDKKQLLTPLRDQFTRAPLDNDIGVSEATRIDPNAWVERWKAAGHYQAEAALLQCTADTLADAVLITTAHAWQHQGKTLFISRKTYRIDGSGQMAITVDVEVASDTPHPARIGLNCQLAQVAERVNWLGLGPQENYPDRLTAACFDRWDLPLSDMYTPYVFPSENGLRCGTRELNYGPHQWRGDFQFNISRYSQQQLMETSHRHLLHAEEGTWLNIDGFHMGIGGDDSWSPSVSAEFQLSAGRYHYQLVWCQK

[10] = loss of viability in HepG2 cells – cell-based, CellTiter-Glo, cherry-picked, cytotoxicity control for Shn3 inhibitor project, dose response (AID 624134); assay type: functional
[11] = off-target signal loss in HeLa-CEM21 co-culture – HeLa F-luc CTL cells, cherry-picked, counter-screen for HIV-1 Env fusion inhibitor project, dose response (AID 652040); assay type: functional, cell-based;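 further: potency for signal decrease marking cytotoxic or nonspecific inhibition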
[12] = molecular target: Luciferin 4-monooxygenase (Photinus pyralis, UniProt P08659); assay: Counter Screen for Luciferase-based Assay Positives. [Related pubchem assays: 620, 618, 411 ]
[13] = molecular target: T1, Microphthalmia-associated transcription factor (Homo sapiens, UniProt O75030); assay: reducers of TRPM1 reporter luminescence, concentration series – cell-based, SK-MEL-5, cherry-picked, set 3, MITF inhibitor project, dose response (AID 493073); assay type: functional;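 further: SK-MEL-5 melanoma cells with luciferase driven by the MITF target TRPM1 promoter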
T1 sequence (O75030 whole entry): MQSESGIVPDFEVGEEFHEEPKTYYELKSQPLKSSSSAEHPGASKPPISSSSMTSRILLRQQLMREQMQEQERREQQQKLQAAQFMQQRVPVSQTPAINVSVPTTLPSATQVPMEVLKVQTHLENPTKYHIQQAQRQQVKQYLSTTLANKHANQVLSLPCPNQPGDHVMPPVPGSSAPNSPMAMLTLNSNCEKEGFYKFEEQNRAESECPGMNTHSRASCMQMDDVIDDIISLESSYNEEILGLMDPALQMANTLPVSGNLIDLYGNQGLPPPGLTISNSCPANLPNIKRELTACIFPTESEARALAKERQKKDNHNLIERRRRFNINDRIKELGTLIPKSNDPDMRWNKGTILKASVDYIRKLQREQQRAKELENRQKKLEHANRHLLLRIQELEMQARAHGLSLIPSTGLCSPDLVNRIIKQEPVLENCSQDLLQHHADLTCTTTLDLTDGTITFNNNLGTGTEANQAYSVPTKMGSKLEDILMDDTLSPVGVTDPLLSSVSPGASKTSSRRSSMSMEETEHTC

[14] = molecular target: T2, Heat shock factor protein 1 (Mus musculus, UniProt P38532); assay: decrease of HSF1-responsive luciferase luminescence – cell-based, NIH3T3, dose retest, confirmation (AID 2382); assay type: functional;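 further: NIH3T3 fibroblasts with HSF1-driven luciferase reporter stressed by proteasome inhibitor MG132; luminescence from HSF1-driven luciferase expression after 8 hours of MG132 stress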
T2 sequence (P38532 whole entry): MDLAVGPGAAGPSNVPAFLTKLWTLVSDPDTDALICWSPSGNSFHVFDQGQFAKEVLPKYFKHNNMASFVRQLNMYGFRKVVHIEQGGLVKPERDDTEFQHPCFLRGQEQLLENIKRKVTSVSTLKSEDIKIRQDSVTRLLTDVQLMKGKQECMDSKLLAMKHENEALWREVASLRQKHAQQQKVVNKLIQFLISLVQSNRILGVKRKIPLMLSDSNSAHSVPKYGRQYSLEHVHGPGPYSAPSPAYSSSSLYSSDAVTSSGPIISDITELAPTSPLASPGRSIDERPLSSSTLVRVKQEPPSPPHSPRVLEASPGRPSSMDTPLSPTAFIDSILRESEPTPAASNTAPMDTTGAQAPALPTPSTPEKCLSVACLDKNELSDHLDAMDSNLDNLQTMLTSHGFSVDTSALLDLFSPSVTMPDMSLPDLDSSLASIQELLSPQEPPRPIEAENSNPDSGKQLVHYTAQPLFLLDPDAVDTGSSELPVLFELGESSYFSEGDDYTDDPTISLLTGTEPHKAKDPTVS

[15] = alpha-synuclein stem-loop luciferase translation blockers – H4 neuroglioma cells, luminescence, confirmation (AID 1988); assay type: functional, cell-based
[16] = system: HT-1080; assay: HT1080 cell viability loss – fluorescence readout (AID 620); assay type: functional, cell-based; conditions: Homo sapiens
[17] = HIV-1 AD8 envelope cell-cell fusion blockers – cherry-pick, dose response (AID 652062); assay type: functional, cell-based;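 further: luciferase signal from cell-cell fusion driven by HIV-1 clade B AD8 Env; potency is for inhibitors of fusion seen as a drop in luminescence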
[18] = luciferase reporter signal reduction – luminescence, H4-C neuroglioblastoma cells, dose response (AID 2458); assay type: functional, cell-based;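 further: H4 neuroglioblastoma cells stably carrying a luciferase reporter gene fusion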
[19] = blockers of HIV-1 envelope-mediated cell-cell fusion – cherry-pick, dose response (AID 652057); assay type: functional, cell-based
[20] = luciferase reporter signal suppression in cells – H4 neuroglioma cells, luminescence, dose response (AID 1990); assay type: functional, cell-based
[21] = cells; assay type: functional, cell-based
[22] = HEK-293T viability loss, compound-treated – cell-based, uHTS hits, cytotoxicity control for B/T-cell NF-kB inhibitor project, dose response (AID 489019); assay type: functional;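 further: IC50 reflects cytotoxicity as loss of cell viability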
[23] = alpha-synuclein stem-loop translation blockers – luminescence, H4 neuroglioblastoma cells, dose confirmation, confirmation (AID 2454); assay type: functional, cell-based;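 further: H4 neuroglioblastoma cells carrying an alpha-synuclein 5'UTR luciferase reporter; potency for inhibition of the luciferase signal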
[24] = system: Jurkat; assay: blockers of NF-kB activation in T cells – Jurkat, luciferase reporter, luminescence, B- and T-cell, dose response (AID 489004); assay type: functional, cell-based; conditions: Homo sapiens;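 further: NF-kB luciferase reporter Jurkat cells stimulated with PMA plus ionomycin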
[25] = blockers of HIV-1 ZM109 envelope-driven cell-cell fusion – HeLa effector, CEM target cells, luciferase, cherry-pick, dose response (AID 652058); assay type: functional, cell-based;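 further: luciferase signal from HIV-1 Env mediated cell-cell fusion of effector and target cells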
[26] = molecular target: Cytochrome P450 2C19 (Homo sapiens, UniProt P33261); assay: Cytochrome panel assay with activity outcomes. Panel member name: p450-cyp2c19 Compounds with AC50 equal or less than 10 uM are considered active; assay type: functional; conditions: read-out: AC50
Cytochrome P450 2C19, sequence (P33261 whole entry): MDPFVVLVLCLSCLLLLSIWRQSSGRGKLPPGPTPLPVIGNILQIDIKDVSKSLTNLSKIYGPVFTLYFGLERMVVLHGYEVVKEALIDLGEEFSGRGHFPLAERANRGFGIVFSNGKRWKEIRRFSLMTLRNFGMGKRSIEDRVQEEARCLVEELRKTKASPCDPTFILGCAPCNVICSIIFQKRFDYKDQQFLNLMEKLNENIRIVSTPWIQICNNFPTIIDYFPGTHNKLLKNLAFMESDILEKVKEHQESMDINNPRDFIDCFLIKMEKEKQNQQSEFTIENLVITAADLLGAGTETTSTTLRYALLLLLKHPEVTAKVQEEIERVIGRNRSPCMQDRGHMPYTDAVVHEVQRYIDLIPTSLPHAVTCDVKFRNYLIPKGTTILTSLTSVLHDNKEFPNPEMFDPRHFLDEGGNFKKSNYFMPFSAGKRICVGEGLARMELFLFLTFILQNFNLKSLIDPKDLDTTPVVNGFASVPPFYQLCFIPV

[27] = molecular target: Cytochrome P450 3A4 (Homo sapiens, UniProt P08684);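 further: CYP3A4 tested as one member of a cytochrome P450 panel screen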
Cytochrome P450 3A4, sequence (P08684 whole entry): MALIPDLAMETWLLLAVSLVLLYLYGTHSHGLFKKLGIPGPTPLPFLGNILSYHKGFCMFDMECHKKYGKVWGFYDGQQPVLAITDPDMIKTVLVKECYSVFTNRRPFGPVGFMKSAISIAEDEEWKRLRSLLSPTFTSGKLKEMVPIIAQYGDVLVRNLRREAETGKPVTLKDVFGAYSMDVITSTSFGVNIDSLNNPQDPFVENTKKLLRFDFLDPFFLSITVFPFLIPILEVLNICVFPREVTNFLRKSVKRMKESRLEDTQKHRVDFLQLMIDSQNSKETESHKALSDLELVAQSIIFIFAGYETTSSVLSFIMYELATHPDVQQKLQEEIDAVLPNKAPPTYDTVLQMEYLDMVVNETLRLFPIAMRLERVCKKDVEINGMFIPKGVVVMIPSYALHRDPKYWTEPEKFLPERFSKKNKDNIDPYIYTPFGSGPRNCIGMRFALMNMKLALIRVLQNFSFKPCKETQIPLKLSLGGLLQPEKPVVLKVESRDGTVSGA

Q: For `O=C(Nc1ccc([N+](=O)[O-])cc1)Nc1ccc(OC(F)F)c(Cl)c1`, which IC50 [1] is on record?
A: The IC50 was > 119 µM (inactive).

Q: And the AC50 [2]?
A: Its AC50 is 1.22 µM (active).

Q: What about the IC50 [3] of the same compound?
A: The IC50 was > 119 µM (inactive).

Q: And the AC50 [4]?
A: Its AC50 is 3.59 µM (active).

Q: And the EC50 [5]?
A: Its EC50 is 1.9 µM (active).

Q: What about the EC50 [6] of the same compound?
A: The EC50 was 1.37 µM (active).

Q: What about the CC50 [7] of the same compound?
A: The CC50 was 2.83 µM (active).

Q: And the AC50 [8]?
A: The AC50 was 4.77 µM (active).

Q: And the IC50 [9]?
A: Its IC50 is > 66.6 µM (inactive).

Q: What about the AC50 [10] of the same compound?
A: Its AC50 is 6.24 µM (active).

Q: Which AC50 [11] does the source give for `CC(C)(C)c1ccc(C(=O)Nc2ccc(CC(=O)O)cc2)o1` here?
A: The AC50 was 0.558 µM (active).

Q: What about the EC50 [12] of the same compound?
A: The EC50 was 0.57 µM (active).

Q: What about the AC50 [13] of the same compound?
A: The AC50 was 0.329 µM (active).

Q: What about the EC50 [14] of the same compound?
A: Its EC50 is < 0.16 µM (active).

Q: And the EC50 [15]?
A: Its EC50 is < 0.1 µM (active).

Q: What about the EC50 [16] of the same compound?
A: The EC50 was > 50 µM (not active).

Q: And the AC50 [17]?
A: The AC50 was < 0.26 µM (active).

Q: And the EC50 [18]?
A: The EC50 was 0.106 µM (active).

Q: What about the AC50 [19] of the same compound?
A: Its AC50 is 0.392 µM (active).

Q: What about the EC50 [20] of the same compound?
A: The EC50 was < 0.1 µM (active).

Q: And the EC50 [21]?
A: Its EC50 is 0.344 µM (active).

Q: And the IC50 [22]?
A: The IC50 was > 80 µM (inactive).

Q: What about the EC50 [23] of the same compound?
A: Its EC50 is 0.113 µM (active).

Q: And the IC50 [24]?
A: Its IC50 is < 0.16 µM (active).

Q: What about the AC50 [25] of the same compound?
A: Its AC50 is < 0.26 µM (active).

Q: For `Cc1sc(NC(=O)c2ccc(OCC(C)C)cc2)c(C(N)=O)c1-c1ccc(Cl)cc1Cl`, which AC50 [26] is on record?
A: The AC50 was 1.78 µM (inconclusive).

Q: And the EC50 [5]?
A: Its EC50 is 48.2 µM (active).

Q: And the EC50 [6]?
A: Its EC50 is 18.5 µM (active).

Q: What about the AC50 [27] of the same compound?
A: Its AC50 is “inconclusive”.
